Measurements published in the supplement of paper PMC10307832.

Experiments:
Assay in all cases: relative viability (nuclei count vs DMSO), 5 days (fraction); higher = more cells survive
Ruxolitinib + Linsitinib = compound: N#CC[C@H](C1CCCC1)n1cc(-c2ncnc3[nH]ccc23)cn1 [Ruxolitinib] + C[C@]1(O)C[C@@H](c2nc(-c3ccc4ccc(-c5ccccc5)nc4c3)c3c(N)nccn32)C1 [Linsitinib] (partner 1 µM)
In short: (§1)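 Relative viability divides the nuclei count in treated wells by that in vehicle wells. Lung cancer cell lines were seeded in 1536-well plates, dosed by pin tool the next day, and fixed and stained after 5 days in one step with final 0.05% Triton X-100, 1% formaldehyde and 1 ug/ml Hoechst. Dosing was a single drug or a fixed anchor-drug dose plus five library-drug doses (not always all listed) in √10 steps, and values are medians of duplicate plates imaged at 4×.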

Vismodegib + OSI-027 = compound: CS(=O)(=O)c1ccc(C(=O)Nc2ccc(Cl)c(-c3ccccn3)c2)c(Cl)c1 [Vismodegib] + COc1cccc2cc(-c3nc([C@H]4CC[C@H](C(=O)O)CC4)n4ncnc(N)c34)[nH]c12 [OSI-027] (partner 0.5 µM)
In short: as §1

VE-821 + Tozasertib = compound: CS(=O)(=O)c1ccc(-c2cnc(N)c(C(=O)Nc3ccccc3)n2)cc1 [VE-821] + Cc1cc(Nc2cc(N3CCN(C)CC3)nc(Sc3ccc(NC(=O)C4CC4)cc3)n2)n[nH]1 [Tozasertib] (partner 0.1 µM)
In short: as §1

Ruxolitinib + Decitabine = compound: N#CC[C@H](C1CCCC1)n1cc(-c2ncnc3[nH]ccc23)cn1 [Ruxolitinib] + Nc1ncn([C@H]2C[C@H](O)[C@@H](CO)O2)c(=O)n1 [Decitabine] (partner 2 µM)
In short: as §1

Cell Line	relative viability (Ruxolitinib + Linsitinib; first compound 0.08 µM)	relative viability (Ruxolitinib + Linsitinib; first compound 0.253 µM)	relative viability (Ruxolitinib + Linsitinib; first compound 0.8 µM)	relative viability (Ruxolitinib + Linsitinib; first compound 2.53 µM)	relative viability (Ruxolitinib + Linsitinib; first compound 8 µM)	relative viability (Vismodegib + OSI-027; first compound 0.08 µM)	relative viability (Vismodegib + OSI-027; first compound 0.253 µM)	relative viability (Vismodegib + OSI-027; first compound 0.8 µM)	relative viability (Vismodegib + OSI-027; first compound 2.53 µM)	relative viability (Vismodegib + OSI-027; first compound 8 µM)	relative viability (VE-821 + Tozasertib; first compound 0.08 µM)	relative viability (VE-821 + Tozasertib; first compound 0.253 µM)	relative viability (VE-821 + Tozasertib; first compound 0.8 µM)	relative viability (VE-821 + Tozasertib; first compound 2.53 µM)	relative viability (VE-821 + Tozasertib; first compound 8 µM)	relative viability (Ruxolitinib + Decitabine; first compound 0.08 µM)	relative viability (Ruxolitinib + Decitabine; first compound 0.253 µM)	relative viability (Ruxolitinib + Decitabine; first compound 0.8 µM)	relative viability (Ruxolitinib + Decitabine; first compound 2.53 µM)	relative viability (Ruxolitinib + Decitabine; first compound 8 µM)
NCI-H3122	1.09	1.06	1.02	0.815	1.04	0.971	0.863	0.84	0.849	0.981	0.389	0.383	0.369	0.418	0.306	0.47	0.387	0.429	0.302	0.389
HARA	0.983	1.01	1.03	0.912	0.815	0.702	0.47	0.529	0.492	0.466	0.109	0.111	0.106	0.112	0.0878	0.63	0.472	0.631	0.565	0.489
NCI-H1666	0.739	0.949	0.933	0.776	0.902	0.841	0.764	0.786	0.858	0.958	0.625	0.684	0.646	0.644	0.603	0.601	0.666	0.753	0.678	0.721
NCI-H460	0.801	0.858	0.929	0.702	0.462	0.644	0.603	0.684	0.622	0.559	0.492	0.343	0.0499	0.0583	0.0489	0.451	0.408	0.576	0.28	0.388
NCI-H2087	0.861	1.08	0.983	0.692	0.638	0.645	0.476	0.398	0.618	0.39	0.241	0.204	0.248	0.212	0.198	0.316		0.35	0.189	0.286
NCI-H1355	0.794	0.841	0.843	0.753	0.716	0.488	0.447	0.378	0.444	0.399	0.542	0.52	0.404	0.369	0.194	0.353	0.376	0.398	0.326	0.358
NCI-H838	1.03	0.903	0.87	0.534	0.36	0.416	0.334	0.338	0.41	0.441	0.284	0.25	0.2	0.212	0.215	0.466	0.437	0.489	0.351	0.28
SW 1573	0.948	0.669	0.848	0.707	0.534	0.742	0.595	0.682	0.521	0.574	0.164	0.174	0.181	0.216	0.197	0.547	0.512	0.667	0.377	0.518
NCI-H2085	0.875	0.888	1.01	0.836	0.685	0.9	0.732	0.756	0.74	0.662	0.875	0.759	0.494	0.459	0.368	0.598	0.531	0.624	0.515	0.496
NCI-H1651	0.949	0.864	1	0.929	0.964	0.658	0.774	0.543	0.771	0.703	0.779	0.616	0.345	0.517	0.422	0.514	0.604	0.624	0.438	0.655
NCI-H1993	0.785	0.783	0.779	0.801	0.796	0.572	0.479	0.579	0.562	0.594	0.685	0.556	0.567	0.513	0.549	0.582	0.53	0.595	0.534	0.59
NCI-H2126	0.701	0.725	0.731	0.744	0.702	0.793	0.759		0.69	0.604	0.911	0.911	0.671	0.703	0.518	0.559	0.594	0.584	0.631	0.635
NCI-H1793	0.632	0.92	1.04	1.12	0.968		0.246	0.248	0.242	0.23	0.323	0.257	0.182	0.234	0.159	0.436	0.502	0.488	0.392	0.413
LC-2-ad	0.741	0.86	0.814	0.68	0.496	0.975	0.786	0.824	0.809	0.676	0.427	0.597	0.504	0.565	0.426	0.776	0.936	0.784	0.694	0.604
NCI-H647	1.29	1.15	1.22	1.16	1.03	0.665	0.605	0.671	0.486	0.579	0.372	0.26	0.261	0.238	0.164	0.45	0.351	0.433	0.28	0.344
LCLC-97TM1	0.195	0.151	0.189	0.22	0.219	0.673	0.522	0.525	0.507	0.523	0.307	0.224	0.213	0.484	0.184	0.221	0.242	0.22	0.265	0.222
LK-2	0.459	0.715	0.722	0.36	0.765	0.264	0.187	0.181	0.182	0.226	0.172	0.174	0.161	0.197	0.202	0.228	0.237	0.35	0.308	0.273

Cell Line	relative viability (Ruxolitinib + Linsitinib; first compound 0.08 µM)	relative viability (Ruxolitinib + Linsitinib; first compound 0.253 µM)	relative viability (Ruxolitinib + Linsitinib; first compound 0.8 µM)	relative viability (Ruxolitinib + Linsitinib; first compound 2.53 µM)	relative viability (Ruxolitinib + Linsitinib; first compound 8 µM)	relative viability (Vismodegib + OSI-027; first compound 0.08 µM)	relative viability (Vismodegib + OSI-027; first compound 0.253 µM)	relative viability (Vismodegib + OSI-027; first compound 0.8 µM)	relative viability (Vismodegib + OSI-027; first compound 2.53 µM)	relative viability (Vismodegib + OSI-027; first compound 8 µM)	relative viability (VE-821 + Tozasertib; first compound 0.08 µM)	relative viability (VE-821 + Tozasertib; first compound 0.253 µM)	relative viability (VE-821 + Tozasertib; first compound 0.8 µM)	relative viability (VE-821 + Tozasertib; first compound 2.53 µM)	relative viability (VE-821 + Tozasertib; first compound 8 µM)	relative viability (Ruxolitinib + Decitabine; first compound 0.08 µM)	relative viability (Ruxolitinib + Decitabine; first compound 0.253 µM)	relative viability (Ruxolitinib + Decitabine; first compound 0.8 µM)	relative viability (Ruxolitinib + Decitabine; first compound 2.53 µM)	relative viability (Ruxolitinib + Decitabine; first compound 8 µM)
BEN	0.751	0.887	1.15	0.758	1.03	0.336	0.308	0.272	0.294	0.311	0.591	0.579	0.495	0.631	0.589	0.5	0.699	0.816	0.592	0.773
NCI-H650		0.795	1.11	0.677	0.55	0.604	0.513	0.454	0.511	0.491	0.744	0.744	0.643	0.765	0.707	0.364	0.38	0.28	0.342	0.332
EKVX	0.876	0.897	0.966	0.893	0.813	0.677	0.67	0.676	0.715	0.731	0.45	0.346	0.352	0.39	0.309		0.3	0.35	0.337	0.414
NCI-H1395		0.998	1.08	0.945	1.01	0.608	0.562	0.596	0.599	0.686	0.765	0.716	0.671	0.703	0.762	0.698	0.697	0.77	0.69	0.686
NCI-H2009	1.21	1.23	1.28	1.02	0.904	0.688	0.619	0.612	0.608	0.738	0.871	0.74	0.633	0.737	0.734	0.361	0.375	0.364	0.369	0.317
NCI-H23	0.579	0.694	0.799	0.485	0.612	0.745	0.742	0.599	0.464	0.438	0.323	0.559	0.263	0.192	0.179	0.311	0.337	0.359	0.275	0.305
LU99A	0.549	0.499	0.541	0.554	0.499	0.35	0.271	0.24	0.278	0.287	0.264	0.299	0.277	0.24	0.227	0.918	0.938	0.886	0.639	0.836
NCI-H1915	1.12	1.05	1.05	1.04	1.03	0.669	0.592	0.536	0.566	0.608	0.472	0.45	0.341	0.35	0.303	0.262	0.278	0.275	0.237	0.233
EMC-BAC-2	0.799	0.822	0.87	0.744	0.66	0.423	0.378	0.419	0.394	0.395	0.344	0.306	0.322	0.253	0.277	0.915	0.916	1.14	0.921	0.851
201T	1.1	1.15	1.19	1.21	1.22	0.834	0.741	0.733	0.731	0.747	1.04	0.988	0.896	0.929	0.636	0.949	0.914	1	1.02	0.973
NCI-H1944	1.23	1.12	1.28	1.15	1.21	0.413	0.391	0.422	0.388	0.442	0.285	0.253	0.219	0.231	0.193	0.445	0.394	0.467	0.393	0.409
NCI-H441	0.508	0.573	0.512	0.637	0.286	0.932	0.693	0.638	0.518	0.601	0.78	0.399	0.666	0.564	0.511	0.244	0.238	0.21	0.16	0.26
NCI-H1437	0.983	0.994	1.02	0.966	0.653	0.884	0.805	0.905	0.858	0.804	0.437	0.401	0.368	0.421	0.408	0.716	0.623	0.631	0.634	0.603
EPLC-272H	1.26	1.12	1.31	1.19	1.25	0.291	0.273	0.279	0.278	0.275	0.363	0.26	0.374	0.211	0.154	0.408	0.367	0.439	0.414	0.36
LOU-NH91	0.663	0.895	1.14	0.895	0.872	0.777	0.689	0.673	0.693	0.709	0.69	0.666	0.665	0.701	0.54	0.684	0.813	0.829	0.782	0.798
ABC-1	0.983	0.705	0.865	0.97	0.871	0.638	0.392	0.581	0.403	0.52	0.201	0.17	0.15	0.181	0.16		1.03	1.38	1.21	1.21
